ChEMBL document CHEMBL4382207, “Computer-aided drug discovery of Myc-Max inhibitors as potential therapeutics for prostate cancer” (Eur J Med Chem, 2018)
The source made the active and inactive calls. No cut-off for these calls is given here.

Experiments:
c-Myc/Max [1] = target: T1, c-Myc/Max (Homo sapiens, UniProt P01106+P61244); test: Inhibition of Myc-Max (unknown origin) expressed in human LNCAP cells assessed as reduction in transcriptional activity at 25 uM after 1 day by luciferase reporter gene assay relative to control; assay type: cell-based
c-Myc/Max [2] = target: T1, c-Myc/Max; test: Inhibition of Myc-Max (unknown origin) expressed in human 22rv1 cells harboring UBE2C promoter assessed as reduction in ARV7 level after 1 day by luciferase reporter gene assay; assay type: cell-based
c-Myc/Max [3] = target: T1, c-Myc/Max; test: Inhibition of Myc-Max (unknown origin) expressed in human 22rv1 cells harboring UBE2C promoter assessed as reduction in ARV7 level at 25 uM after 1 day by luciferase reporter gene assay relative to control; assay type: cell-based
[4] = Cytotoxicity against rat HO15.19 cells assessed as reduction in cell viability at 25 uM after 96 hrs by prestoblue assay relative to control; assay type: cell-based; details: read-out: INH
c-Myc/Max [5] = target: T1, c-Myc/Max; test: Inhibition of Myc-Max (unknown origin) expressed in human LNCAP cells assessed as reduction in transcriptional activity after 1 day by luciferase reporter gene assay; assay type: cell-based
LNCaP [6] = test: Cytotoxicity against human LNCAP cells assessed as reduction in cell viability after 96 hrs by prestoblue assay; assay type: functional, cell-based
HO15.19 = test: Cytotoxicity against rat HO15.19 cells assessed as reduction in cell viability at 3 uM after 96 hrs by prestoblue assay; assay type: cell-based; details: ho15.19, 96 h
c-Myc/Max [7] = target: T1, c-Myc/Max; test: Inhibition of biotin-labeled EBOX oligonucleotide binding to GST-tagged Myc (368 to 454 residues)/His-tagged Max (23 to 102 residues) (unknown origin) expressed in Escherichia coli BL21(DE3) incubated up to 600 secs by biolayer interferometry assay
LNCaP [8] = test: Induction of apoptosis in human LNCAP cells assessed as increase in PARP cleavage at 6.25 to 25 uM after 48 hrs by Western blot analysis; assay type: functional, cell-based
c-Myc/Max [9] = target: T1, c-Myc/Max; test: Inhibition of full length Myc-Max (unknown origin) expressed in human PC3 cells at 12.5 to 25 uM after 24 hrs by luciferase reporter gene based mammalian two-hybrid assay; assay type: cell-based
LNCaP [10] = test: Cytotoxicity against human LNCAP cells assessed as reduction in cell viability at 3 uM after 96 hrs by prestoblue assay relative to control; assay type: functional
c-Myc/Max [11] = target: T1, c-Myc/Max; test: Inhibition of Myc-Max (unknown origin) expressed in human 22rv1 cells harboring UBE2C promoter assessed as reduction in ARV7 level at 12.5 to 25 uM after 48 hrs by Western blot analysis; assay type: cell-based
c-Myc/Max [12] = target: T1, c-Myc/Max; test: Inhibition of biotin-labeled EBOX oligonucleotide binding to GST-tagged Myc (368 to 454 residues)/His-tagged Max (23 to 102 residues) (unknown origin) expressed in Escherichia coli BL21(DE3) at 500 uM incubated up to 600 secs by biolayer interferometry assay

T1 sequence (P01106 whole entry): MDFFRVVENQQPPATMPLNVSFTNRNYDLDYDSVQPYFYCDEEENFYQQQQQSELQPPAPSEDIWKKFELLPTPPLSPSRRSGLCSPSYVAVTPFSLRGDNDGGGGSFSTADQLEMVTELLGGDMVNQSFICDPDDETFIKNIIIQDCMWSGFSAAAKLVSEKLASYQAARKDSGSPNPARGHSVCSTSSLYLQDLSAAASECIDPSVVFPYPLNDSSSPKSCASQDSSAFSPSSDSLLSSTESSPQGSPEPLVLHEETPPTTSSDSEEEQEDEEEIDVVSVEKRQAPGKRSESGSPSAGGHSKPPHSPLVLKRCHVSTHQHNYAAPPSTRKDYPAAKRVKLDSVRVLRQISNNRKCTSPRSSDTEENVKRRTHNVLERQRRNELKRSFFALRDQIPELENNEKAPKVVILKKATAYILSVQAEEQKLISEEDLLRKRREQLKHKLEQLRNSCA
T1 sequence (P61244 whole entry): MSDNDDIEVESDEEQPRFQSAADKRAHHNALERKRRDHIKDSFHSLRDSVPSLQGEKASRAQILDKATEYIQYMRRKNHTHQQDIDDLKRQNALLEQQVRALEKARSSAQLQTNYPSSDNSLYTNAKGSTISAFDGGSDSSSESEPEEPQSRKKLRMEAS

inhibition (c-Myc/Max [1]) [%] | inhibition (c-Myc/Max [2]) | inhibition (c-Myc/Max [3]) [%] | Structure (SMILES) | IC50 (LNCaP [6]) [µM] | further results
81 | Dose-dependent effect | 51 | CC(=O)Nc1ccc(Nc2cc(Cl)c(C(F)(F)F)cc2[N+](=O)[O-])cc1 |  | 
106 | Dose-dependent effect | 94 | FC(F)(F)c1cc(NC(=S)NCc2ccccc2)cc(C(F)(F)F)c1 | 2.5 | cytotoxicity at 96 h, 25 µM [4]: ≤ 40%; IC50 (c-Myc/Max [5]): 8.9 µM; Activity (HO15.19): Non-Toxic; inhibition (c-Myc/Max [7]): Dose-dependent effect; Activity (LNCaP [8]): Active; inhibition (c-Myc/Max [9]): Active; inhibition at 3 µM (LNCaP [10]): 70%; inhibition (c-Myc/Max [11]): Active; inhibition (c-Myc/Max [12]): Active
65 | Dose-dependent effect |  | O=C1/C(=C/c2cccs2)SC(=S)N1c1cccc(O)c1 |  | 
73 | Dose-dependent effect | 58 | CC(C)(C)[C@H]1CCc2sc(C(=O)N3CCC(C(N)=O)CC3)cc2C1 |  | 
91 | Dose-dependent effect | 70 | CCc1ccc(/C=C2\SC(=S)NC2=O)cc1 | 18.3 | 
53 | Dose-dependent effect |  | CS(=O)(=O)Nc1ccccc1C(=O)OCc1cc(=O)oc2cc(O)ccc12 |  | 
78 | Dose-dependent effect | 64 | CN1C(=O)/C(=C\C=C\c2ccco2)SC1=S |  | 
65 | Dose-dependent effect |  | O=C(CN1C(=O)NC2(CCCC2)C1=O)Nc1cccc(C(F)(F)F)c1 |  | 
95 | Dose-dependent effect | 73 | NC(=O)c1ccsc1NC(=O)Nc1cccc(C(F)(F)F)c1 |  | 
88 | Dose-dependent effect |  | O=[N+]([O-])c1ccc(Nc2ccccc2-c2ccccc2)c2nonc12 | 8.7 | inhibition (c-Myc/Max [9]): inactive; inhibition (c-Myc/Max [11]): Active; inhibition (c-Myc/Max [12]): Active
98 | Dose-dependent effect | 71 | O=C1NC(=S)S/C1=C\c1ccccc1C(F)(F)F | 11.1 | IC50 (c-Myc/Max [5]): 22.7 µM; Activity (LNCaP [8]): Active; inhibition (c-Myc/Max [11]): Active; inhibition (c-Myc/Max [12]): Active

Structure (SMILES) | inhibition (c-Myc/Max [1]) [%] | inhibition (c-Myc/Max [2]) | inhibition (c-Myc/Max [3]) [%] | IC50 (LNCaP [6]) [µM] | further results
S=C(NCc1ccc(Cl)c(Cl)c1)Nc1cccnc1 | 73 | Dose-dependent effect | 50 |  | 
